According to ChEMBL document CHEMBL6182949 (J Med Chem, 2025):

Key:
[1] = molecular target: T1, Protein cereblon/Interleukin-1 receptor-associated kinase 4 (Homo sapiens, UniProt Q9NWZ3+Q96SW2); assay: PROTAC activity at CRBN/IRAK4 in human THP-1 cells assessed as induction of IRAK4 degradation incubated for 24 hrs by HiBiT lytic reagent based analysis; assay type: cell-based
Target sequence in this assay (Q9NWZ3 whole entry): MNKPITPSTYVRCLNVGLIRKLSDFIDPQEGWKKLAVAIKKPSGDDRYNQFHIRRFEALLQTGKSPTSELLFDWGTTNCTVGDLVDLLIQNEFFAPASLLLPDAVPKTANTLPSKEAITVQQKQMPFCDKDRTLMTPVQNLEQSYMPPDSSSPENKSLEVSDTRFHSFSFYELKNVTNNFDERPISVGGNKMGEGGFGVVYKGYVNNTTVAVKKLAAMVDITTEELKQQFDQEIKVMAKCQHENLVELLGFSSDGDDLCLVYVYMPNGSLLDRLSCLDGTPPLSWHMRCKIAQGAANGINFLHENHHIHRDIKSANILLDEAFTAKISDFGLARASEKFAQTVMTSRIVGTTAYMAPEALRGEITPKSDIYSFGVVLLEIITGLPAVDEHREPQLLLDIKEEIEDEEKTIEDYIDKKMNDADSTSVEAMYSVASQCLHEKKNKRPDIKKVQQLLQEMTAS
Target sequence in this assay (Q96SW2 whole entry): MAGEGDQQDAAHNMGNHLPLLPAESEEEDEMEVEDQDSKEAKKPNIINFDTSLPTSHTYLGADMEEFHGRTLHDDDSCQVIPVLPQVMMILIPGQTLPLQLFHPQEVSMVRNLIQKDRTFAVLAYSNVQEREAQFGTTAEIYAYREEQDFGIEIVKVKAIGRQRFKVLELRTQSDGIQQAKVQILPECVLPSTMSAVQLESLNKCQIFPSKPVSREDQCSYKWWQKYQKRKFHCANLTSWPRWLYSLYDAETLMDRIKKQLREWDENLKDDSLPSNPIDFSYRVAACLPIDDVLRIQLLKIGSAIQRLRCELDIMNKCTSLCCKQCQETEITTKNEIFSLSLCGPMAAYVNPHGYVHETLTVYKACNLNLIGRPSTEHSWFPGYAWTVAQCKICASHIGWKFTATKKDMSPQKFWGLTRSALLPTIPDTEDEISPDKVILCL

[2] = molecular target: T1, Protein cereblon/Interleukin-1 receptor-associated kinase 4; assay: PROTAC activity at CRBN/IRAK4 in human THP-1 cells assessed as induction of IRAK4 degradation incubated for 24 hrs by HiBiT lytic reagent based analysis relative to control; assay type: cell-based
Target sequence in this assay (Q96SW2 whole entry, looked up): as the sequence (Q96SW2 whole entry) above
Target sequence in this assay (Q9NWZ3 whole entry, looked up): as the sequence (Q9NWZ3 whole entry) above

[3] = Metabolic stability in human liver microsome assessed as half life at 1 uM measured up to 60 mins in presence of NADPH by LC-MS/MS analysis; assay type: ADME; conditions: liver microsomes
[4] = Metabolic stability in cynomolgus monkey liver microsome assessed as half life at 1 uM measured up to 60 mins in presence of NADPH by LC-MS/MS analysis; assay type: ADME, Macaca fascicularis; conditions: liver microsomes
[5] = Metabolic stability in dog liver microsome assessed as half life at 1 uM measured up to 60 mins in presence of NADPH by LC-MS/MS analysis; assay type: ADME, Canis lupus familiaris; conditions: liver microsomes
[6] = Metabolic stability in rat liver microsome assessed as half life at 1 uM measured up to 60 mins in presence of NADPH by LC-MS/MS analysis; assay type: ADME; conditions: liver microsomes
[7] = Metabolic stability in mouse liver microsome assessed as half life at 1 uM measured up to 60 mins in presence of NADPH by LC-MS/MS analysis; assay type: ADME; conditions: liver microsomes
[8] = molecular target: Voltage-gated inwardly rectifying potassium channel KCNH2 (Homo sapiens, UniProt Q12809); assay: Inhibition of hERG expressed in HEK293 cells by manual patch clamp assay; assay type: toxicity, cell-based; set-up: concentration or dose not given beside the values
hERG (KCNH2) [9] = molecular target: T2, hERG (KCNH2) (Homo sapiens, UniProt Q12809); assay: Inhibition of hERG expressed in HEK293 cells at 3 uM by manual patch clamp assay relative to control; assay type: toxicity, cell-based; conditions: HEK293 cells expressing hERG
hERG (KCNH2) [10] = molecular target: T2, hERG (KCNH2); assay: Inhibition of hERG expressed in HEK293 cells at 1 uM by manual patch clamp assay relative to control; assay type: toxicity, cell-based; conditions: HEK293 cells expressing hERG
[11] = Cmax in male C57BL/6 mouse at 2 mg/kg, iv measured up to 24 hrs by LC-MS/MS analysis; assay type: ADME, organism-based; conditions: in vivo
[12] = AUClast in male C57BL/6 mouse at 2 mg/kg, iv measured up to 24 hrs by LC-MS/MS analysis; assay type: ADME, organism-based; conditions: in vivo
[13] = Half life in male C57BL/6 mouse at 2 mg/kg, iv measured up to 24 hrs by LC-MS/MS analysis; assay type: ADME, organism-based; conditions: in vivo
[14] = Clearance in male C57BL/6 mouse at 2 mg/kg, iv measured up to 24 hrs by LC-MS/MS analysis; assay type: ADME, organism-based; conditions: in vivo
[15] = Volume of distribution at steady state in male C57BL/6 mouse at 2 mg/kg, iv measured up to 24 hrs by LC-MS/MS analysis; assay type: ADME, organism-based; conditions: in vivo, read-out: Vdss
[16] = Tmax in male C57BL/6 mouse at 10 mg/kg, po measured up to 24 hrs by LC-MS/MS analysis; assay type: ADME, organism-based; conditions: in vivo
[17] = Cmax in male C57BL/6 mouse at 10 mg/kg, po measured up to 24 hrs by LC-MS/MS analysis; assay type: ADME, organism-based; conditions: in vivo
[18] = AUClast in male C57BL/6 mouse at 10 mg/kg, po measured up to 24 hrs by LC-MS/MS analysis; assay type: ADME, organism-based; conditions: in vivo
[19] = Half life in male C57BL/6 mouse at 10 mg/kg, po measured up to 24 hrs by LC-MS/MS analysis; assay type: ADME, organism-based; conditions: in vivo
[20] = Oral bioavailability in male C57BL/6 mouse at 10 mg/kg measured up to 24 hrs by LC-MS/MS analysis; assay type: ADME, organism-based; conditions: in vivo
[21] = Cmax in Sprague-Dawley rat at 2 mg/kg, iv measured up to 24 hrs by LC-MS/MS analysis; assay type: ADME, organism-based; conditions: in vivo
[22] = AUClast in Sprague-Dawley rat at 2 mg/kg, iv measured up to 24 hrs by LC-MS/MS analysis; assay type: ADME, organism-based; conditions: in vivo
[23] = Half life in Sprague-Dawley rat at 2 mg/kg, iv measured up to 24 hrs by LC-MS/MS analysis; assay type: ADME, organism-based; conditions: in vivo
[24] = Clearance in Sprague-Dawley rat at 2 mg/kg, iv measured up to 24 hrs by LC-MS/MS analysis; assay type: ADME, organism-based; conditions: in vivo
[25] = Volume of distribution at steady state in Sprague-Dawley rat at 2 mg/kg, iv measured up to 24 hrs by LC-MS/MS analysis; assay type: ADME, organism-based; conditions: in vivo, read-out: Vdss
[26] = Tmax in Sprague-Dawley rat at 10 mg/kg, po measured up to 24 hrs by LC-MS/MS analysis; assay type: ADME, organism-based; conditions: in vivo
[27] = Cmax in Sprague-Dawley rat at 10 mg/kg, po measured up to 24 hrs by LC-MS/MS analysis; assay type: ADME, organism-based; conditions: in vivo
[28] = AUClast in Sprague-Dawley rat at 10 mg/kg, po measured up to 24 hrs by LC-MS/MS analysis; assay type: ADME, organism-based; conditions: in vivo
[29] = Half life in Sprague-Dawley rat at 10 mg/kg, po measured up to 24 hrs by LC-MS/MS analysis; assay type: ADME, organism-based; conditions: in vivo
[30] = Oral bioavailability in Sprague-Dawley rat at 10 mg/kg measured up to 24 hrs by LC-MS/MS analysis; assay type: ADME, organism-based; conditions: in vivo

Voltage-gated inwardly rectifying potassium channel KCNH2, sequence (Q12809 whole entry): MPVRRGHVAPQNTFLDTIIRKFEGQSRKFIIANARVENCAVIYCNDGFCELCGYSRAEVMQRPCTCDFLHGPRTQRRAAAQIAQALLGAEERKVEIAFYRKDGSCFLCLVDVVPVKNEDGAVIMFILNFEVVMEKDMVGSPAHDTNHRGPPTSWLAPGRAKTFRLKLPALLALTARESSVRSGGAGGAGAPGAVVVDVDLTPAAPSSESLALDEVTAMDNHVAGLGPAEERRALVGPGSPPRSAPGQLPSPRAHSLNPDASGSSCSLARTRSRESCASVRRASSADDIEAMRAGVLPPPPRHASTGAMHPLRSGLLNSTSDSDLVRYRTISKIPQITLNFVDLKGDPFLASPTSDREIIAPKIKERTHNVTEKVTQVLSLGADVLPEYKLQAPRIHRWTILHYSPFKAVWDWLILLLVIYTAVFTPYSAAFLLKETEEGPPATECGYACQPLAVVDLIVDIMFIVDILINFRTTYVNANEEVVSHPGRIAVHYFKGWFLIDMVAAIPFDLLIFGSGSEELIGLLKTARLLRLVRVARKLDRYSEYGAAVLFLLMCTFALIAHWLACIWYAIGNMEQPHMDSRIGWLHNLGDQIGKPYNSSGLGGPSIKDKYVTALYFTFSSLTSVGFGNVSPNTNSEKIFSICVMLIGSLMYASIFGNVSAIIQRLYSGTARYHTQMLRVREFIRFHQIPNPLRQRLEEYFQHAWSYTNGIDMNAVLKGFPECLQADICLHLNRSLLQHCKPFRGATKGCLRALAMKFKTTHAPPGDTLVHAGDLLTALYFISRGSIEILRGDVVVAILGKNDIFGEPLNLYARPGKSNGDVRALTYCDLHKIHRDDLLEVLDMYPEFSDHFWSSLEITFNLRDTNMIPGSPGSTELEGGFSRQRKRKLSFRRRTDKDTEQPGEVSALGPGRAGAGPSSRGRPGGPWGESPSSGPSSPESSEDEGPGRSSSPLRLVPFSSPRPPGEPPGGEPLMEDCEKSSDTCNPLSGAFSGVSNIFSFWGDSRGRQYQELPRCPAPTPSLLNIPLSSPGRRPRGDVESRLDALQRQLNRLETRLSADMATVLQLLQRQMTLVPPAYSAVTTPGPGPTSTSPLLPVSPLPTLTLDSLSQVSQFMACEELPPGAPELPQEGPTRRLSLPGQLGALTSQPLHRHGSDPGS
T2 sequence (Q12809 whole entry): as above

Cn1c(=O)n(C2CCC(=O)NC2=O)c2cccc(CN3CCC(CCN4CCC5(CC4)Cc4cc(NC(=O)c6cnn7cccnc67)c(N6CCC(CO)CC6)cc4O5)CC3)c21 (stereo unspecified)
DC50 [1]: 1.09 nM | Emax [2]: 92% | half-life at 1 µM [3]: 0.733 h | half-life at 1 µM [4]: 0.217 h | half-life at 1 µM [5]: 1.55 h | half-life at 1 µM [6]: 0.817 h | half-life at 1 µM [7]: 1.1 h | inhibition (INH) [8]: 28%

Cn1c(=O)n(C2CCC(=O)NC2=O)c2cccc(CCCOCCNCCN3CCC4(CC3)Cc3cc(NC(=O)c5cnn6cccnc56)c(N5CCC(CO)CC5)cc3O4)c21 (stereo unspecified)
DC50 [1]: 1.86 nM | Emax [2]: 68% | inhibition (INH) [8]: 2%

Cn1c(=O)n(C2CCC(=O)NC2=O)c2cccc(C#CCOCCNCCN3CCC4(CC3)Cc3cc(NC(=O)c5cnn6cccnc56)c(N5CCC(CO)CC5)cc3O4)c21 (stereo unspecified)
DC50 [1]: 1.17 nM | Emax [2]: 89% | inhibition (INH) [8]: 8%

Cn1c(=O)n(C2CCC(=O)NC2=O)c2cccc(C#CCO[C@H]3CC[C@H](CN4CCC5(CC4)Cc4cc(NC(=O)c6cnn7cc(Cl)cnc67)c(N6CCC(CO)CC6)cc4O5)CC3)c21 (stereo partly specified)
DC50 [1]: 2.27 nM | Emax [2]: 87% | half-life at 1 µM [3]: > 3.07 h | half-life at 1 µM [4]: 1.87 h | half-life at 1 µM [5]: > 3.07 h | half-life at 1 µM [6]: 2.1 h | half-life at 1 µM [7]: 1.3 h | inhibition at 3 µM (hERG (KCNH2) [9]): 2%

Cn1c(=O)n(C2CCC(=O)NC2=O)c2cccc(C#CCO[C@H]3CC[C@H](CN4CCC5(CC4)Cc4cc(NC(=O)c6cnn7cc(F)cnc67)c(N6CCC(CO)CC6)cc4O5)CC3)c21 (stereo partly specified)
DC50 [1]: 2.24 nM | Emax [2]: 87% | half-life at 1 µM [3]: > 3.07 h | half-life at 1 µM [5]: > 3.07 h | half-life at 1 µM [7]: > 3.07 h | inhibition at 1 µM (hERG (KCNH2) [10]): 36% | Cmax [11]: 1380 ng/mL | AUC(0-t) at 24 h [12]: 11700 ng·h/mL | half-life [13]: 4.07 h | clearance [14]: 2.83 mL/min/kg | Vd [15]: 0.96 L/kg | Tmax [16]: 4 h | Cmax [17]: 2280 ng/mL | AUC(0-t) at 24 h [18]: 27000 ng·h/mL | half-life [19]: 4.27 h | bioavailability [20]: 47% | Cmax [21]: 243 ng/mL | AUClast [22]: 424 ng·h/mL | half-life [23]: 3.14 h | clearance [24]: 12.4 mL/min/kg | Vd [25]: 3.12 L/kg | Tmax [26]: 6 h | Cmax [27]: 628 ng/mL | AUClast [28]: 8344 ng·h/mL | half-life [29]: 2.94 h | F [30]: 21%

Cn1c(=O)n(C2CCC(=O)NC2=O)c2cccc(CN3CC4(CCN(CCN5CCC6(CC5)Cc5cc(NC(=O)c7cnn8cccnc78)c(N7CCC(CO)CC7)cc5O6)CC4)C3)c21 (stereo unspecified)
DC50 [1]: 1.66 nM | Emax [2]: 95% | inhibition (INH) [8]: 6%
